From patent publication US11066447B2, “Aureobasidium derivatives and methods of synthesis” (AureoGen Biosciences, Inc., priority 2016, dated 2021) come the findings set out here.

The structures appear in SMILES notation. Converted amounts (≈) assume the structure as drawn. Like-named read-outs stand apart in the source and are kept apart here. Numbered stars: 1 amine (or outer) side, 2 acyl side, 3 side chain; on linkers, the order of the positions; unused ones are H or OH. Square brackets hold non-standard residues; d marks the D form. Peptide text beside a SMILES is read from it. X19 = CN([C@@H](Cc1cccc(-c2ccc(OCc3ccccc3)cc2)c1)C(=O)[*:2])[*:1]; X23 = CN([C@@H](Cc1cccc(-c2cccc3c2cnn3C)c1)C(=O)[*:2])[*:1]; Hmp(2R,3S) = CC[C@H](C)[C@@H](O)C(=O)O; NMeVal(β-OH) = CN[C@H](C(=O)O)C(C)(C)O; NMeV = CN[C@H](C(=O)O)C(C)C Where only a bound is given, the exact number is not on record here.

One assay has as its system A. flavus MMX 5948. As to the kind of experiment: MIC/MEC assay (CLSI microdilution). Format: cell-based. Conditions: Aspergillus flavus, RPMI plus 0.002% Tween-80. Summed up:
(§1)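 Broth microdilution per CLSI in RPMI-1640 with 0.002% Tween-80; MMX 5280 also run without Tween-80. Test compounds serially diluted two-fold in 95% ethanol, amphotericin B in DMSO (0.06-64 μg/mL). Aspergillus spore inoculum gave approximately 0.2-2.5×10^4 CFU/mL final.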

In assay [1] the test system is A. niger MMX 0624 ATCC 16888. As to the kind of experiment: MIC/MEC assay (CLSI microdilution). The note with it: RPMI plus 0.002% Tween-80, 48 hr. The assay is classed as cell-based. Summed up: as §1
Background: Broth dilution looks for growth in wells or tubes with falling amounts of substance.

Assay [2] relates to A. fumigatus MMX 6782 ATCC 13073. As to the kind of experiment: MIC/MEC assay (CLSI microdilution). The assay is classed as cell-based. Conditions: Aspergillus fumigatus. In short, it runs like this:
as §1

Assay [3] has as its system A. fumigatus MMX 5280 ATCC MYA-3626. The experiment in a line: MIC/MEC assay (CLSI microdilution). Format: cell-based, Aspergillus fumigatus. The note with it: for minimal effective concentration: 48 h; for MIC: 48 hr. Summed up: as §1
Assay [4] has as its system C. albicans MMX 2000 ATCC 10231. As to the kind of experiment: MIC assay (CLSI microdilution). The assay is classed as cell-based. The note with it: Candida albicans, ATCC10231, RPMI plus 0.002% Tween-80.
In assay [5] the test system is C. parapsilosis MMX 2323 ATCC 22019. The experiment in a line: MIC assay (CLSI microdilution). The assay is classed as cell-based, Candida parapsilosis. In short, it runs like this:
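Broth microdilution MIC testing of Candida parapsilosis ATCC 22019 followed CLSI methods in RPMI-1640, with or without 0.002% Tween-80. Yeast grown 48 hours at 35° C on Sabouraud dextrose agar was suspended to a 0.5 McFarland standard and diluted 1:100 to roughly 0.5-2.5×10^3 CFU/mL. The MIC was the lowest concentration preventing visible growth.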

For assay [6], the system named is C. neoformans MMX 0634 ATCC 90112. As to the kind of experiment: MIC assay (CLSI microdilution). The note with it: Cryptococcus neoformans, ATCC90112, RPMI plus 0.002% Tween-80; read-out: MIC. The assay is classed as cell-based.
Assay [7] concerns A. fumigatus MMX 6781 ATCC MYA-4609. As to the kind of experiment: MIC/MEC assay (CLSI microdilution). The assay is classed as cell-based. Conditions: Aspergillus fumigatus, RPMI plus 0.002% Tween-80, 48 hr. Summed up: as §1
For assay [8], the system named is A. fumigatus from Aureogen. As to the kind of experiment: MIC/MEC assay (CLSI microdilution). Format: cell-based. Conditions: Aspergillus fumigatus, RPMI plus 0.002% Tween-80, 48 hr. In short, it runs like this:
as §1

In the next assay the test system is A. fumigatus MMX 5944. As to the kind of experiment: MIC/MEC assay (CLSI microdilution). The assay is classed as cell-based. Conditions: RPMI plus 0.002% Tween-80; 48 hr. In short, it runs like this:
as §1

As usually defined, the MIC is the least concentration at which growth counts as inhibited. Take `CC[C@H](C)[C@@H]1NC(=O)[C@@H]2CCCN2C(=O)[C@H](Cc2cccc(-c3ccc(OCc4ccccc4)cc3)c2)N(C)C(=O)[C@H](Cc2ccccc2)NC(=O)[C@H](C(C)C)N(C)C(=O)[C@@H]([C@@H](C)CC)OC(=O)[C@H](C(C)(C)O)N(C)C(=O)[C@H](CC(C)C)NC(=O)[C@H](C(C)C)N(C)C1=O` [Compound 13] (cyclo(F[X19]PI[NMeV]L[NMeVal(β-OH)][Hmp(2R,3S)][NMeV])): the MIC in the assay on A. flavus MMX 5948 (MMX5948, 48 h) was over 64 µg/mL; in [1] it was 8 µg/mL; in assay [2] (ATCC13073, 48 h, RPMI plus 0.002% Tween-80), over 64 µg/mL; in assay [3] (Without Tween-80), >64/>64 μg/mL; in assay [4], 0.5 µg/mL; in assay [5] (ATCC22019, RPMI plus 0.002% Tween-80), over 64 µg/mL. The same compound yielded a minimum inhibitory concentration (MIC) in assay [5] (ATCC22019, Without Tween-80) of over 64 µg/mL. Further, the MEC in assay [1] was 2 µg/mL. Also, the minimal effective concentration in assay [2] (ATCC13073, 48 h, read-out: MEC, RPMI plus 0.002% Tween-80) is 1 µg/mL; in assay [3] (Aspergillus fumigatus, read-out: MEC, RPMI plus 0.002% Tween-80), over 64 µg/mL; in assay [3] (Aspergillus fumigatus, read-out: MEC, Without Tween-80), over 64 µg/mL.

As for `CC[C@H](C)[C@@H]1NC(=O)[C@@H]2CCCN2C(=O)[C@H](Cc2cccc(-c3cccc4c3cnn4C)c2)N(C)C(=O)[C@H](Cc2ccccc2)NC(=O)[C@H](C(C)C)N(C)C(=O)[C@@H]([C@@H](C)CC)OC(=O)[C@H](C(C)(C)O)N(C)C(=O)[C@H](CC(C)C)NC(=O)[C@H](C(C)C)N(C)C1=O` [Compound 14] (cyclo(F[X23]PI[NMeV]L[NMeVal(β-OH)][Hmp(2R,3S)][NMeV])), the MIC in [6] is 0.5 µg/mL; in assay [7] (read-out: MIC), over 64 µg/mL; in the assay on A. flavus MMX 5948 (MMX5948, 48 hr, read-out: MIC), over 64 µg/mL; in assay [1] (Aspergillus niger, ATCC16888, read-out: MIC), 0.12 µg/mL; in assay [8] (read-out: MIC), over 64 µg/mL; in [2] (ATCC13073, RPMI plus 0.002% Tween-80, 48 hr, read-out: MIC) it was over 64 µg/mL. Further, the MIC in the assay with A. fumigatus MMX 5944 was 8 µg/mL; in assay [3] (Aspergillus fumigatus, RPMI plus 0.002% Tween-80, read-out: MIC), over 64 µg/mL; in assay [3] (Without Tween-80), over 64 µg/mL; in assay [4] (read-out: MIC), 0.03 µg/mL; in assay [5] (ATCC22019, RPMI plus 0.002% Tween-80, read-out: MIC), 0.12 µg/mL; in assay [5] (ATCC22019, Without Tween-80, read-out: MIC) it was 1 µg/mL (≈ 0.812 µM). Also, the minimal effective concentration in [7] is 1 µg/mL; in the assay on A. flavus MMX 5948 (MMX5948, 48 hr), over 64 µg/mL; in [1] (Aspergillus niger, ATCC16888, read-out: MEC) it was 0.12 µg/mL; in assay [8], 1 µg/mL; in assay [2] (ATCC13073, RPMI plus 0.002% Tween-80, 48 hr, read-out: MEC), 0.25 µg/mL; in [3] (Aspergillus fumigatus, RPMI plus 0.002% Tween-80, read-out: MEC), 0.5 µg/mL. In assay [3] (Aspergillus fumigatus, Without Tween-80, read-out: MEC), the minimal effective concentration was determined as 2 µg/mL. Also, the MEC with A. fumigatus MMX 5944 stood at 1 µg/mL.
